In paper PMC3160198 (The Journal of neuroscience : the official journal of the …, 2011):

Experiments:
[1] = molecular target: homomeric ρ1 GABAC receptor (GABAρ1) (Homo sapiens, UniProt P24046); assay: two-electrode voltage clamp in Xenopus oocytes, potentiation of GABA current; format: cell-based; details: 3000 µM, GABA 0.3 μM, pH 7.0, -70 mV
α1β2 GABAA receptor = α1β2 GABAA receptor (Rattus norvegicus, UniProt P62813+P63138); assay: whole-cell patch clamp in HEK […] cells, potentiation of GABA current; format: cell-based; details: GABA 1 μM (EC50); pH 7.4; -60 mV; positive modulator
Chain of α1β2 GABAA receptor (P62813 28-455): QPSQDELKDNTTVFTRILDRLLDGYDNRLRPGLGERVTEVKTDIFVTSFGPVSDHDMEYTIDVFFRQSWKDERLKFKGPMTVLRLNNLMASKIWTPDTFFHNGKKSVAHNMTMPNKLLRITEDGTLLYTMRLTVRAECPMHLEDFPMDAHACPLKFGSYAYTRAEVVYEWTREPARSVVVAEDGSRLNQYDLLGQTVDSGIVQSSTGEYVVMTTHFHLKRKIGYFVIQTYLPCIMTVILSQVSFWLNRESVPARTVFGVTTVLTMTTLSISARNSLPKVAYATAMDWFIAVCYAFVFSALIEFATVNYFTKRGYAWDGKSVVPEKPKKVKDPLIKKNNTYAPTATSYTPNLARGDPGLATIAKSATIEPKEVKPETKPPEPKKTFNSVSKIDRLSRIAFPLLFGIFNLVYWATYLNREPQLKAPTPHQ
Chain of α1β2 GABAA receptor (P63138 26-474): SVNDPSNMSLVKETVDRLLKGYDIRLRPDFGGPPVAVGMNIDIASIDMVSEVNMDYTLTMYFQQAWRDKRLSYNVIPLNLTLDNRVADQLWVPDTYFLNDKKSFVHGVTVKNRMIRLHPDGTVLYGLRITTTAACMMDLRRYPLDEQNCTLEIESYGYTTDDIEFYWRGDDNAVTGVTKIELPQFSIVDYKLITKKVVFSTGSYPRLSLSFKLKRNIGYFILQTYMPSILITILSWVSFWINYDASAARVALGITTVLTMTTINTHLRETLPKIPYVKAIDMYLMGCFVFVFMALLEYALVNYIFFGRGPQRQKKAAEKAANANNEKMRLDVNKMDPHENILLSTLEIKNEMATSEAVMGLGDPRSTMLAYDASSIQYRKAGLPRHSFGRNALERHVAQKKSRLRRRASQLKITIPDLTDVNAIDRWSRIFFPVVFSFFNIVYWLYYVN

Chain of homomeric ρ1 GABAC receptor (GABAρ1) (P24046 22-479): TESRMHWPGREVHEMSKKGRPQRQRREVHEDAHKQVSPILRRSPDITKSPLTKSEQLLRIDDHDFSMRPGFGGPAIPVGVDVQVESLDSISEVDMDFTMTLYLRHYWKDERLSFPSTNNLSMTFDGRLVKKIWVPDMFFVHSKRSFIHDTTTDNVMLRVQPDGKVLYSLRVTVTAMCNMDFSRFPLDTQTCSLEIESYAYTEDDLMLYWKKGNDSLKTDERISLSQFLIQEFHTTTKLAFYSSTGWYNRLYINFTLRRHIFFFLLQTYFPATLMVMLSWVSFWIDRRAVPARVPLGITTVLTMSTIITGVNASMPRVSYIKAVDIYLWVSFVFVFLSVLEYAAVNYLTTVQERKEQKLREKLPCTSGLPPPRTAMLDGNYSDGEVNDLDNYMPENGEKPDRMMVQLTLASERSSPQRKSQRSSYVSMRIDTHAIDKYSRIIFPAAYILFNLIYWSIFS

O=C1O[C@H]([C@@H](O)CO)C(O)=C1O [Asc, Ascorbic acid]
% Potentiation ([1]; positive allosteric modulator): 139.5 ± 87.5%
% potentiation at 10 mM (α1β2 GABAA receptor): ~ 600%

O=C1O[C@H]([C@H](O)CO)C(O)=C1O [D-isoAsc, D-isoascorbic acid]
% Potentiation ([1]; positive allosteric modulator): 33.5 ± 12.5%

O=C1O[C@H]([C@@H](O)CO)C(=O)C1=O [DHA, L-dehydroascorbic acid]
% Potentiation [1]: -1.6 ± 4.2%
